Results as given in patent US6974804B2, “Esters” (Unilever Home & Personal Care USA, division of Conopco, Inc., priority 2000, dated 2005).

Experiment: Gelling of water-immiscible cosmetic liquids in 96 well glass micro-titre plate
Format: physicochemical
Design: key: gel; g4: gel after overnight (18 hrs) storage at 4° C.; g22: gel after overnight (18 hrs) storage at 22° C.; sg: soft gel; sg22: soft gel after overnight (18 hrs) storage at 22° C.; solution; *: the test at 4° C. was not carried out
Conditions: for gelling of ISA: 150° C. 2.5 hours, cooled to ambient
Procedure: In this Example, various samples of esterified cellobiose prepared as in Example 1 or 2 above, were used to gel water-immiscible cosmetic liquids, in accordance with the procedure given below, in which a large number of gels can be prepared simultaneously.
The samples were tested in a 96 well (8×12 rows) glass micro-titre plate. […] About 0.01 or 0.02 g of each esterified cellobiose material was placed into 8 consecutive wells in a single row, so that each well contained approximately 5% or 10% of the cellobiose ester. The balance in each well comprised the cosmetic liquid by addition of approximately 0.2 g of the respective liquid to each cell. A glass lid was placed on top of the plate. The plate was carefully placed in a thermostatically controlled fan-assisted oven set at 150° C. for 2.5 hours. The plate was removed from the oven and allowed to cool naturally to ambient laboratory temperature. The contents of the wells were assessed at the end of the cooling period, by visual inspection and by poking the contents of each well with a micro-spatula. The plates were stored at […] for 18 hours and the contents inspected, and further stored for 18 hours at 4° C. and inspected for a third time. The results obtained in the tests are summarised in Table 5 below, in which the legend is as follows: […]

[1] = 5% cellobiose ester in Fluid AP
[2] = 5% cellobiose ester in Mineral oil
[3] = 5% cellobiose ester in Polydecene
[4] = 10% cellobiose ester in Fluid AP
[5] = 10% cellobiose ester in Mineral oil
[6] = 10% cellobiose ester in Polydecene

SMILES	gelling of DC556 (5% cellobiose ester in DC556)	gelling of Fluid AP [1]	gelling of ISA (5% cellobiose ester in ISA)	gelling of Mineral oil [2]	gelling of Polydecene [3]	gelling of DC556 (10% cellobiose ester in DC556)	gelling of Fluid AP [4]	gelling of ISA (10% cellobiose ester in ISA)	gelling of Mineral oil [5]	gelling of Polydecene [6]	gelling of IPM (5% cellobiose ester in IPM)	gelling of IPM (10% cellobiose ester in IPM)
CCCCCCCCC(=O)OCC1OC(OC2C(COC(=O)CCCCCCCC)OC(OC(=O)CCCCC)C(OC(=O)CCCCCCCC)C2OC(=O)CCCCCCCC)C(OC(=O)CCCCCCCC)C(OC(=O)CCCCCCCC)C1OC(=O)CCCCCCCC (mixture of isomers) [Ex 1.21]	g22	gel	sg22	g22	gel	gel	gel	g22	g22	gel		
CCCCCCCCC(=O)OCC1OC(OC2C(COC(=O)CCCCCCCC)OC(OC(=O)C3CCCC3)C(OC(=O)CCCCCCCC)C2OC(=O)CCCCCCCC)C(OC(=O)CCCCCCCC)C(OC(=O)CCCCCCCC)C1OC(=O)CCCCCCCC (mixture of isomers) [Ex 3.5]	g22	sg22	sg22	sol*	gel	gel	gel	g22	gel	gel		
CCCCCCCCCC(=O)OCC1OC(OC2C(COC(=O)CCCCCCCCC)OC(OC(=O)CCCCC)C(OC(=O)CCCCCCCCC)C2OC(=O)CCCCCCCCC)C(OC(=O)CCCCCCCCC)C(OC(=O)CCCCCCCCC)C1OC(=O)CCCCCCCCC (mixture of isomers) [Ex 2.11]	gel	gel	gel	gel	gel	gel	gel	gel	gel	gel		
CCCCCCCCC(=O)OCC1OC(OC2C(COC(=O)CCCCCCCC)OC(OC(=O)CCCC)C(OC(=O)CCCCCCCC)C2OC(=O)CCCCCCCC)C(OC(=O)CCCCCCCC)C(OC(=O)CCCCCCCC)C1OC(=O)CCCCCCCC (mixture of isomers) [Ex 1.20]	g22	g22	sg22	g22	gel	g22	gel	g22	g22	gel		
CCCCCCCCC(=O)OCC1OC(OC2C(COC(=O)CCCCCCCC)OC(OC(=O)c3ccc(-c4ccccc4)cc3)C(OC(=O)CCCCCCCC)C2OC(=O)CCCCCCCC)C(OC(=O)CCCCCCCC)C(OC(=O)CCCCCCCC)C1OC(=O)CCCCCCCC (mixture of isomers) [Ex 1.15]	gel	gel	gel	gel	gel	gel	gel	gel	gel	gel		
CCCCCCCCCC(=O)OCC1OC(OC2C(COC(=O)CCCCCCCCC)OC(OC(C)=O)C(OC(=O)CCCCCCCCC)C2OC(=O)CCCCCCCCC)C(OC(=O)CCCCCCCCC)C(OC(=O)CCCCCCCCC)C1OC(=O)CCCCCCCCC (mixture of isomers) [Ex 2.3]	gel	gel	gel	gel	gel	gel	gel	gel	gel	gel		
CCCCCCCCCCCCCCCC(=O)OC1OC(COC(=O)CCCCCCCCC)C(OC2OC(COC(=O)CCCCCCCCC)C(OC(=O)CCCCCCCCC)C(OC(=O)CCCCCCCCC)C2OC(=O)CCCCCCCCC)C(OC(=O)CCCCCCCCC)C1OC(=O)CCCCCCCCC (mixture of isomers) [Ex 2.12]	gel	gel	g22	gel	gel	gel	gel	gel	gel	gel		
CCCCCCCCCC(=O)OCC1OC(OC2C(COC(=O)CCCCCCCCC)OC(OC(C)=O)C(OC(=O)CCCCCCCCC)C2OC(=O)CCCCCCCCC)C(OC(=O)CCCCCCCCC)C(OC(=O)CCCCCCCCC)C1OC(=O)CCCCCCCCC (mixture of isomers) [Ex 2.4]	gel	gel	gel	gel	gel							
CCCCCCCCCC(=O)OCC1OC(OC2C(COC(=O)CCCCCCCCC)OC(OC(C)=O)C(OC(=O)CCCCCCCCC)C2OC(=O)CCCCCCCCC)C(OC(=O)CCCCCCCCC)C(OC(=O)CCCCCCCCC)C1OC(=O)CCCCCCCCC (mixture of isomers) [Ex 2.5]	gel	gel	gel	gel	gel							
CCCCCCCCCCCC(=O)OC1OC(COC(=O)CCCCCCCC)C(OC2OC(COC(=O)CCCCCCCC)C(OC(=O)CCCCCCCC)C(OC(=O)CCCCCCCC)C2OC(=O)CCCCCCCC)C(OC(=O)CCCCCCCC)C1OC(=O)CCCCCCCC (mixture of isomers) [Ex 1.23]	gel	sg	g22	g22	gel	gel	gel	g22	g22	gel		
CCCCCCCCCCCCCCCC(=O)OC1OC(COC(=O)CCCCCCCCC)C(OC2OC(COC(=O)CCCCCCCCC)C(OC(=O)CCCCCCCCC)C(OC(=O)CCCCCCCCC)C2OC(=O)CCCCCCCCC)C(OC(=O)CCCCCCCCC)C1OC(=O)CCCCCCCCC (mixture of isomers) [Ex 2.13]	gel	gel	gel	gel	gel	gel	gel	gel	gel	gel		
CCCCCCCCC(=O)OCC1OC(OC2C(COC(=O)CCCCCCCC)OC(OC(=O)C3CCCCC3)C(OC(=O)CCCCCCCC)C2OC(=O)CCCCCCCC)C(OC(=O)CCCCCCCC)C(OC(=O)CCCCCCCC)C1OC(=O)CCCCCCCC (mixture of isomers) [Ex 1.11]	g22	gel	g22	g22	gel	gel	gel	g22	g22	gel	sol	sol
